Measured values taken from patent US12410166B2, “Sulfonylamidine substituted compounds and their use as beta-lactamase inhibitors” (NINGXIA ACADEMY OF AGRICULTURE AND FORESTRY SCIENCES, priority 2021, dated 2025).
Where a name gives a salt, the structure may show the parent alone.

Columns and labels:
Assay in all cases: MIC by broth microdilution (antibacterial and synergistic activity)
Format in all cases: cell-based
[1] = tested on: A. baumannii clinical isolate (strain 7, OXA-23, OXA-40); conditions: Acinetobacter baumannii; strain 7 (OXA-23/40); compound alone, no antibiotic; read-out: Antibacterial activity, MIC, inhibitor Alone
Experimental: (§1) Compounds of the present invention alone, avibactam (AVI) alone, relebactam (REL) alone, meropenem (MER) alone, imipenem (IMI) alone, and as a combination of compounds of the present invention, or avibactam or relebactam with test antibiotic (meropenem or imipenem) was tested for antimicrobial activity by determining minimum inhibitory concentration (MIC, mg/L) using the broth microdilution method according to the guidelines of the Clinical Laboratories and Standards Institute (“Methods for Dilution Antimicrobial Susceptibility Tests for Bacterial that Grow Aerobically”, Approved standard, 7th ed., Clinical and Laboratories Standards Institute (CLSI) Document M7-A8, Wayne, Pa., USA, 2009). Meropenem or imipenem as a test antibiotic compound was dissolved in DMSO, and then diluted in microbial growth medium (Mueller-Hinton Broth II, cation adjusted) resulting in a final concentration range of 0.031-64 mg/L in serial two-fold dilution. In all cases the final DMSO concentration was less than 0.5%. Bacteria were added to 96-well microtitre plates containing the serial two-fold dilutions of the compounds; the final cell density was approximately 5×10^5 colony forming units/mL (CFU/mL). Plates were incubated at 37° C. for 18-24 hours and read visually. The MIC, i.e. the lowest concentration of the test compound that inhibited visible growth of the bacteria, was recorded. The same assay conditions were used when the compounds of present invention alone, avibactam or relebactam alone (as a control), and as a combination of the present invention each compound, or avibactam or relebactam with test meropenem or imipenem antibiotic compound was tested for minimum inhibitory concentration (MIC, mg/L). While test meropenem or imipenem was serially diluted as described above, a constant concentration of avibactam, or relebactam or the present invention each compound of 4 mg/L was used.
(§2) Bacterial strains that were used to evaluate the antimicrobial activity using the MIC determination included but were not limited to E. coli clinical isolate (strain 1, TEM-1), E. coli 8739 (strain 2, CTX-M15), K. pneumoniae clinical isolate (strain 3, SHV-1), K. pneumoniae 700603 (strain 4, KPC-3, TEM-1), E. cloacae clinical isolate (strain 5, P99), E. cloacae 700323 (strain 6, AmpC), A. baumannii clinical isolate (strain 7, OXA-23, OXA-40), A. baumannii 19606 (strain 8, OXA-24), P. aeruginosa clinical isolate (strain 9, KPC-2), P. aeruginosa 9027 (strain 10, AmpC).

[2] = tested on: E. cloacae clinical isolate (strain 5, P99); conditions: Enterobacter cloacae; strain 5 (P99); compound alone, no antibiotic; read-out: Antibacterial activity, MIC, inhibitor Alone
Experimental: as §1, §2

[3] = tested on: P. aeruginosa 9027 (strain 10, AmpC); conditions: Pseudomonas aeruginosa; strain 10 (AmpC); compound alone, no antibiotic; read-out: Antibacterial activity, MIC, inhibitor Alone
Experimental: as §1, §2

[4] = tested on: P. aeruginosa clinical isolate (strain 9, KPC-2); conditions: Pseudomonas aeruginosa; strain 9 (KPC-2); compound alone, no antibiotic; read-out: Antibacterial activity, MIC, inhibitor Alone
Experimental: as §1, §2

[5] = tested on: E. coli clinical isolate (strain 1, TEM-1); conditions: Escherichia coli; strain 1 (TEM-1); compound alone, no antibiotic; read-out: Antibacterial activity, MIC, inhibitor Alone
Experimental: as §1, §2

[6] = tested on: K. pneumoniae 700603 (strain 4, KPC-3, TEM-1); conditions: Klebsiella pneumoniae; strain 4 (KPC-3, TEM-1); compound alone, no antibiotic; read-out: Antibacterial activity, MIC, inhibitor Alone
Experimental: as §1, §2

[7] = tested on: A. baumannii 19606 (strain 8, OXA-24); conditions: Acinetobacter baumannii, read-out: Antibacterial activity, MIC, inhibitor Alone
Experimental: as §1, §2

[8] = tested on: E. cloacae 700323 (strain 6, AmpC); conditions: Enterobacter cloacae; strain 6 (AmpC); compound alone, no antibiotic; read-out: Antibacterial activity, MIC, inhibitor Alone
Experimental: as §1, §2

[9] = tested on: K. pneumoniae clinical isolate (strain 3, SHV-1); conditions: Klebsiella pneumoniae; strain 3 (SHV-1); compound alone, no antibiotic; read-out: Antibacterial activity, MIC, inhibitor Alone
Experimental: as §1, §2

[10] = tested on: E. coli 8739 (strain 2, CTX-M15); conditions: Escherichia coli, read-out: Antibacterial activity, MIC, inhibitor Alone
Experimental: as §1, §2

Measured: MIC

N=C(NS(N)(=O)=O)[C@@H]1CC[C@@H]2CN1C(=O)N2OS(=O)(=O)O [Ex. 16, (2S,5R)-7-oxo-2-(N-Sulfamoylcarbamimidoyl)-1,6-diazabicyclo[3.2.1]octan-6-yl hydrogen sulfate]
> 64 µg/mL: all assays above

N=C(NS(=O)(=O)C1CC1)[C@@H]1CC[C@@H]2CN1C(=O)N2OS(=O)(=O)[O-].[Na+] [Ex. 6, Sodium (2S,5R)-2-(N-(cyclopropylsulfonyl)carbamimidoyl)-7-oxo-1,6-diazabicyclo[3.2.1]octan-6-yl sulfate]
> 64 µg/mL: all assays above

COCCS(=O)(=O)NC(=N)[C@@H]1CC[C@@H]2CN1C(=O)N2OS(=O)(=O)[O-].[Na+] [Ex. 3, Sodium (2S,5R)-2-(N-((2-methoxyethyl)sulfonyl)carbamimidoyl)-7-oxo-1,6-diazabicyclo[3.2.1]octan-6-yl sulfate]
> 64 µg/mL: all assays above

COc1ccc(S(=O)(=O)NC(=N)[C@@H]2CC[C@@H]3CN2C(=O)N3OS(=O)(=O)O)cn1 [Ex. 21, (2S,5R)-2-(N-((6-methoxypyridin-3-yl)sulfonyl)carbamimidoyl)-7-oxo-1,6-diazabicyclo[3.2.1]octan-6-yl hydrogen sulfate]
> 64 µg/mL: all assays above

N=C(NS(=O)(=O)c1cnccn1)[C@@H]1CC[C@@H]2CN1C(=O)N2OS(=O)(=O)O [Ex. 24, (2S,5R)-7-oxo-2-(N-(pyrazin-2-ylsulfonyl)carbamimidoyl)-1,6-diazabicyclo[3.2.1]octan-6-yl hydrogen sulfate]
> 64 µg/mL: all assays above

CS(=O)(=O)NC(=N)[C@@H]1CC[C@@H]2CN1C(=O)N2OS(=O)(=O)[O-].[Na+] [Ex. 5, Sodium (2S,5R)-2-(N-(methylsulfonyl)carbamimidoyl)-7-oxo-1,6-diazabicyclo[3.2.1]octan-6-yl sulfate]
> 64 µg/mL: all assays above

CCNS(=O)(=O)NC(=N)[C@@H]1CC[C@@H]2CN1C(=O)N2OS(=O)(=O)O [Ex. 18, (2S,5R)-2-(N—(N-Ethylsulfamoyl)carbamimidoyl)-7-oxo-1,6-diazabicyclo[3.2.1]octan-6-yl hydrogen sulfate]
> 64 µg/mL: all assays above

N=C(NS(=O)(=O)c1ccc(C(F)(F)F)cn1)[C@@H]1CC[C@@H]2CN1C(=O)N2OS(=O)(=O)O [Ex. 20, (2S,5R)-7-oxo-2-(N-((5-(trifluoromethyl)pyridin-2-yl)sulfonyl)carbamimidoyl)-1,6-diazabicyclo[3.2.1]octan-6-yl hydrogen sulfate]
> 64 µg/mL: all assays above

Cc1ccc(S(=O)(=O)NC(=N)[C@@H]2CC[C@@H]3CN2C(=O)N3OS(=O)(=O)[O-])cc1.[Na+] [Ex. 9, Sodium (2S,5R)-7-oxo-2-(N-tosylcarbamimidoyl)-1,6-diazabicyclo[3.2.1]octan-6-yl sulfate]
> 64 µg/mL: all assays above

N=C(NS(=O)(=O)c1cccnc1)[C@@H]1CC[C@@H]2CN1C(=O)N2OS(=O)(=O)[O-].[Na+] [Ex. 13, Sodium (2S,5R)-7-oxo-2-(N-(pyridin-3-ylsulfonyl)carbamimidoyl)-1,6-diazabicyclo[3.2.1]octan-6-yl sulfate]
> 64 µg/mL: all assays above
